Some test systems named below: HT-29; OVCAR-4; A498; MOLT-4; NCI-H23; HCT-116; M14; SK-MEL-28; NCI-H460; Malme-3M; NCI-H522; A549; OVCAR-8; LOX IMVI; TK-10; U-251; 786-0; HCC 2998.
Common to all, as to experiment: NCI anticancer screen, dose series, 48 h

Experimental findings from ChEMBL document CHEMBL1201862, “PubChem BioAssay data set” (2004) are described below.

Molecules are shown by their SMILES.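 Growth conditions: 96-well plates. Treatment: test compound, 48 hours, 5 concentrations. Analysis: linear interpolation between bracketing concentrations; unreached endpoints set to highest concentration. The concentration for 50% growth inhibition is given as GI50.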 Calls of active or inactive are those of the source. Cut-off read from the data, not from the text of the source: active = GI50 up to about 1.1 µM and inactive = higher.

On to `COc1ccc(C2S/C(=C\c3ccc(O)cc3)C(=O)N2NC(=O)Cc2ccccc2)cc1` (configuration not stated), for which the GI50 in the test on HT-29, with OVCAR-4, in the test with A498, in the test on MOLT-4, in the test on NCI-H23 and in the test with HCT-116 was > 100 µM (inactive) throughout. Also, the GI50 in the test on M14, in the test on SK-MEL-28, in the test on NCI-H460, in the test on Malme-3M, in the test on NCI-H522 and in the test on A549 was > 100 µM (inactive) each time. For the same compound, the GI50 with OVCAR-8, in the test with LOX IMVI, in the test with TK-10, in the test on U-251 and in the test with 786-0 was > 100 µM (inactive) throughout.
`COc1cc(C2c3cc4c(cc3[C@@H](Nc3ccc(C(=O)O)cc3)C3COC(=O)[C@H]23)OCO4)cc(OC)c1O` (some centres not stated): the GI50 with HT-29 was 22 µM (inactive); in the test on HCC 2998, 28.4 µM (inactive); in the test with OVCAR-4 it was 20.2 µM (inactive); with A498, 18.7 µM (inactive); with MOLT-4, 0.721 µM (active); in the test with NCI-H23, 10.6 µM (inactive). The GI50 in the test with HCT-116 is 19.4 µM (inactive); in the test on M14, 20.7 µM (inactive); with SK-MEL-28, 27.5 µM (inactive); with NCI-H460, 2.39 µM (inactive); in the test with Malme-3M, 13.7 µM (inactive); in the test on A549, 18.3 µM (inactive). Besides, the GI50 in the test on OVCAR-8 was 14.6 µM (inactive); in the test on LOX IMVI it was 4.41 µM (inactive); in the test with TK-10, 27.8 µM (inactive).
Take `CCNC1=Nc2ccccc2-n2c(nn3nc4ccccc4c23)N1CC`: the GI50 with HT-29 is 82.6 µM (inactive); in the test on OVCAR-4 it was > 100 µM (inactive); in the test with A498, > 100 µM (inactive); with MOLT-4 it was 30.2 µM (inactive); in the test on NCI-H23, > 100 µM (inactive); in the test on HCT-116, > 100 µM (inactive). The GI50 in the test with M14 is > 100 µM (inactive); in the test on SK-MEL-28, 94.2 µM (inactive); in the test on NCI-H460, > 100 µM (inactive); in the test with NCI-H522 it was 72.4 µM (inactive); in the test with A549 it was > 100 µM (inactive); in the test on OVCAR-8, > 100 µM (inactive). Besides, the GI50 in the test with LOX IMVI, in the test with U-251 and with 786-0 was > 100 µM (inactive) each time.
Turning to `CON(C)C(=O)CCCO`, the GI50 in the test with HT-29, in the test with OVCAR-4, in the test with MOLT-4, in the test with NCI-H23, in the test with HCT-116 and in the test with M14 was > 100 µM (inactive) in each case. Also, the GI50 with SK-MEL-28, in the test with NCI-H460, with Malme-3M, with NCI-H522, in the test with A549 and in the test on OVCAR-8 was > 100 µM (inactive) throughout. Also, the GI50 in the test with TK-10, in the test on U-251 and in the test on 786-0 was > 100 µM (inactive) in each case.
With `Cc1ccc(C2C(Cl)C(=O)N2n2cnc3ccccc3c2=O)cc1` (configuration not stated), the GI50 in the test with HT-29 was > 100 µM (inactive); in the test on HCC 2998, > 100 µM (inactive); with OVCAR-4 it was 65.9 µM (inactive); in the test on MOLT-4, 39.4 µM (inactive); in the test with NCI-H23, > 100 µM (inactive); in the test with HCT-116, 89.3 µM (inactive). In addition, the GI50 with M14, in the test on SK-MEL-28, with NCI-H460, in the test with Malme-3M, in the test on NCI-H522 and in the test with A549 was > 100 µM (inactive) in each case. Further, the GI50 with OVCAR-8, with LOX IMVI, with TK-10, in the test on U-251 and with 786-0 was > 100 µM (inactive) in each case.
As to `CCN1C(C)=NC2C(=O)c3ccccc3C(=O)C21` (configuration not stated), the GI50 in the test on HT-29 was 28.8 µM (inactive); with HCC 2998, 27.4 µM (inactive); in the test with OVCAR-4 it was 21 µM (inactive); in the test on A498, > 100 µM (inactive); with MOLT-4, 43 µM (inactive); with NCI-H23, 50.7 µM (inactive). The GI50 is 36.2 µM (inactive) with HCT-116; 66.5 µM (inactive) in the test on M14; > 100 µM (inactive) with SK-MEL-28; 30.1 µM (inactive) in the test with NCI-H460; 40 µM (inactive) in the test with Malme-3M; 41.6 µM (inactive) with A549. The GI50 in the test on OVCAR-8 was 74.1 µM (inactive); in the test on LOX IMVI it was 46.9 µM (inactive); in the test on TK-10 it was > 100 µM (inactive); in the test with U-251, > 100 µM (inactive); with 786-0 it was 65.5 µM (inactive).
As for `CC(C)N(C(=O)C12C3C4C1C1C4(C#N)C3C12C#N)C(C)C` (configuration not stated), the GI50 in the test on HT-29, in the test on HCC 2998, with OVCAR-4, in the test on A498, in the test on MOLT-4 and in the test on NCI-H23 was > 100 µM (inactive) throughout. Moreover, the GI50 in the test on M14, in the test with SK-MEL-28, in the test with NCI-H460, with Malme-3M, with A549 and in the test with OVCAR-8 was > 100 µM (inactive) in each case. In addition, the GI50 in the test with TK-10, in the test with U-251 and in the test on 786-0 was > 100 µM (inactive) each time.
`C[C@@H]1CC2(C[C@@H](C)C3[C@@H](CC4(C)CCCC5C6=CC(O)(CC[C@]34C)OC6=CC(=O)OC5(C)C)O2)OC1=O` (some centres not stated): the GI50 in the test with HCC 2998, in the test on OVCAR-4, in the test on MOLT-4, in the test with NCI-H23, in the test with HCT-116 and in the test with M14 was > 100 µM (inactive) each time. Further, the GI50 in the test with SK-MEL-28, with Malme-3M, in the test on NCI-H522, in the test on A549, in the test on LOX IMVI and in the test on TK-10 was > 100 µM (inactive) each time. Also, the GI50 with U-251 and in the test on 786-0 was > 100 µM (inactive) each time.
With `CC(=O)N/C(=C\c1ccccc1/C=C(\NC(C)=O)c1nc2cc(C)c(C)cc2[nH]1)c1nc2cc(C)c(C)cc2[nH]1`, the GI50 is 34.8 µM (inactive) in the test on HT-29; 42.4 µM (inactive) in the test with A498; 20.3 µM (inactive) with MOLT-4; 8.17 µM (inactive) in the test with NCI-H23; 5.48 µM (inactive) in the test with HCT-116; 9.84 µM (inactive) with M14. Moreover, the GI50 in the test with SK-MEL-28 was 7.43 µM (inactive); with NCI-H460, 26.8 µM (inactive); in the test on Malme-3M, 21.7 µM (inactive); in the test with NCI-H522, 1.73 µM (inactive); in the test on A549, 28 µM (inactive); in the test with OVCAR-8, 19.2 µM (inactive). In addition, the GI50 is 24.4 µM (inactive) in the test on TK-10, 6.59 µM (inactive) with U-251 and 18.7 µM (inactive) in the test on 786-0.
For `CCC(=O)O[C@@H]1C2C(OC(C)=O)C34COC(C)([C@@H]3C3C(C[C@]3(C)OC(C)=O)[C@@H](OC(=O)c3ccccc3)C4=O)[C@H](OC(C)=O)[C@@]2(OC(C)=O)C[C@@H]1C` (some centres not stated), the GI50 in the test with HT-29 is > 100 µM (inactive); in the test on HCC 2998, 64.7 µM (inactive); in the test on OVCAR-4, 21.1 µM (inactive); in the test on MOLT-4, > 100 µM (inactive); in the test on NCI-H23, 14.9 µM (inactive); in the test with HCT-116, 30.7 µM (inactive). For the same compound, the GI50 was 33.9 µM (inactive) in the test on M14; > 100 µM (inactive) in the test with SK-MEL-28; > 100 µM (inactive) with NCI-H460; 36.6 µM (inactive) in the test on Malme-3M; 37.1 µM (inactive) in the test on NCI-H522; > 100 µM (inactive) in the test on A549. Moreover, the GI50 in the test on OVCAR-8 is 95.5 µM (inactive); in the test with LOX IMVI it was 32 µM (inactive); in the test with TK-10 it was 15.1 µM (inactive); in the test on U-251 it was 10.4 µM (inactive); in the test with 786-0, 11.7 µM (inactive).
For the compound `COc1ccc(OC)c2c1CC(C(=O)O)(C(=O)O)CC2=O`, the GI50 in the test with HCC 2998, in the test on OVCAR-4, in the test with MOLT-4, with NCI-H23, with HCT-116 and with M14 was > 100 µM (inactive) in each case. Besides, the GI50 in the test on SK-MEL-28, with Malme-3M, in the test with A549, in the test with LOX IMVI, in the test with TK-10 and in the test on U-251 was > 100 µM (inactive) each time. In addition, in the test on 786-0, the GI50 is > 100 µM (inactive).
As to `CC1(O)C=CC2CCC1C2O` (configuration not stated), the GI50 with HT-29 was > 100 µM (inactive); in the test on OVCAR-4 it was > 100 µM (inactive); in the test on A498 it was > 100 µM (inactive); with MOLT-4, > 100 µM (inactive); in the test on NCI-H23, > 100 µM (inactive); in the test with HCT-116, 19.7 µM (inactive). The GI50 is > 100 µM (inactive) in the test on M14; > 100 µM (inactive) with SK-MEL-28; 46.5 µM (inactive) with NCI-H460; > 100 µM (inactive) with Malme-3M; > 100 µM (inactive) with NCI-H522; 68.9 µM (inactive) with A549. The GI50 is > 100 µM (inactive) with OVCAR-8; 21.5 µM (inactive) in the test with LOX IMVI; > 100 µM (inactive) in the test with TK-10; > 100 µM (inactive) in the test with U-251; 25.4 µM (inactive) in the test on 786-0.
